In patent US5464820A, “Specific inhibitors of tissue kallikrein” (priority 1993, dated 1995):
Where “and” joins values, the source holds several entries; their conditions need not be identical. Identical values can stand only once. Like-named read-outs stand apart in the source and are kept apart here. Values belong to the compound of their own block, whether it stands above or below them. Non-standard residues stand in square brackets, D forms with d. Residues, ends and D or L forms follow the SMILES beside them. No end group written: not given here. Phe(4-NH2) = Nc1ccc(C[C@H](N)C(=O)O)cc1; hArg = N=C(N)NCCCC[C@H](N)C(=O)O; hPhe = N[C@@H](CCc1ccccc1)C(=O)O; hLys = NCCCCC[C@H](N)C(=O)O; ChCar = not defined here; dAbu = CC[C@@H](N)C(=O)O; dia = not defined here

Experiments:
[1] = biological target: porcine pancreatic kallikrein (PPK) (Sus scrofa, UniProt P00752); experiment: Inhibition of porcine pancreatic kallikrein, cleavage of chromogenic substrate S-2266 (KI); format: biochemical
[2] = biological target: human plasma kallikrein (HPK) (Homo sapiens, UniProt P03952); experiment: Inhibition of human plasma kallikrein (KI); format: biochemical
Excerpt: Assay methods were based on the cleavage of chromogenic substrate S-2266 (D-Val-Leu-Arg-pNA) (Kabi; Charlotte, N.C.) by porcine pancreatic kallikrein (Sigma Chemical Company; St. Louis, Mo.) to yield an increase in absorbance at 405 nm. By changing the substrate and enzyme, the general method has been extended to measure the inhibition of human tissue kallikrein (HTK or human urinary kallikrein HUK), human plasma kallikrein (HPK), plasmin, and urokinase (UK). In all assays, the robot dilutes the inhibitor into a series of wells and adds substrate and buffer. Chromogenic reactions are started by the addition of enzyme. Changes in the absorbance at 405 nm in an array of wells were recorded. All manipulations were performed by the instrument from reservoirs containing substrate, inhibitor, diluent (water), buffer, or enzyme.

[3] = Table 2, P3 substitutions, read-out: log KI (converted)
[4] = Table 5, Pro-Phe-Arg-X-Val-Gln, read-out: KI PPK

porcine pancreatic kallikrein (PPK), sequence (P00752 8-87 limits assumed): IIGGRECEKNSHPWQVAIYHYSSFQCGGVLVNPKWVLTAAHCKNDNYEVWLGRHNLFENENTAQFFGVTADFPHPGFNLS
porcine pancreatic kallikrein (PPK), sequence (P00752 95-246 limits assumed): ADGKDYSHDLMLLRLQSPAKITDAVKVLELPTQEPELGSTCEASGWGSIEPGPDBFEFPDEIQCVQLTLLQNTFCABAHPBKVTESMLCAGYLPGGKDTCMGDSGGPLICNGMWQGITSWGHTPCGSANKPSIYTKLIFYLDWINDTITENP
human plasma kallikrein (HPK), sequence (P03952 20-638): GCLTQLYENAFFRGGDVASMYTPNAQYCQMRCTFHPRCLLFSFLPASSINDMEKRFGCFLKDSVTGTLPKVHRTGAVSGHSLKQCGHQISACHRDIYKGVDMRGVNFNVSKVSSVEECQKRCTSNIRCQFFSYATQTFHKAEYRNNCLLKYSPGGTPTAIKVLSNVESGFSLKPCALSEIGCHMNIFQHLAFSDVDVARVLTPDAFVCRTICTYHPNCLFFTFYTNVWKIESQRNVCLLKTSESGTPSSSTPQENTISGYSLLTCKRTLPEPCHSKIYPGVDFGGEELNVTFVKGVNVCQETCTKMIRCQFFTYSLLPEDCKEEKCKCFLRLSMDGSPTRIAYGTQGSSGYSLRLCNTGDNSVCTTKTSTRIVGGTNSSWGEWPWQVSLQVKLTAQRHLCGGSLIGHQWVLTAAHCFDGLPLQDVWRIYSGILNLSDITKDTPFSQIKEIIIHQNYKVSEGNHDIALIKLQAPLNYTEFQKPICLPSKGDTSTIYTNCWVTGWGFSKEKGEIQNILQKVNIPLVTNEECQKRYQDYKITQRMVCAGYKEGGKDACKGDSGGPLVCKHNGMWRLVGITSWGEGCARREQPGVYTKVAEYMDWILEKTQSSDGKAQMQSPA

Compound: CC(C)[C@H](N)C(=O)N[C@@H](Cc1ccccc1)C(=O)N[C@@H](CCCCNC(=N)N)C(=O)N[C@@H](CC(N)=O)C(=O)N[C@@H](CCCCNC(=N)N)C(=O)N[C@@H](CCC(N)=O)C(N)=O [Val-Phe-hArg-Asn-hArg-Gln] (H-VF[hArg]N[hArg]Q-NH2)
- Ki ([1]; Table 6, read-out: KI PPK): 2.9 µM and 10 µM
- Ki ([2]; Table 6, HUK, read-out: KI HUK): 298 µM

Compound: CC(C)[C@H](N)C(=O)N[C@@H](Cc1ccccc1)C(=O)N[C@@H](CCCNC(=N)N)C(=O)N[C@@H](CC(N)=O)C(=O)N[C@@H](CC(N)=O)C(=O)N[C@@H](CCCNC(=N)N)C(N)=O [Val-Phe-Arg-Asn-Asn-Arg] (H-VFRNNR-NH2)
- Ki ([2]; Table 6, HUK, read-out: KI HUK): 124 µM

Compound: ChCar-Phe-Arg-dia-Val-Gln (ChCar-FR[dia]VQ; reading uncertain; also: printed as ChCar-Phe-Arg-dia-Val-Gln)
- Ki ([1]; Table 6, read-out: KI PPK): 114 µM
- Ki ([2]; Table 6, HUK, read-out: KI HUK): 985 µM

Compound: CC(C)[C@H](NC(=O)[C@@H](CO)NC(=O)[C@H](CCCNC(=N)N)NC(=O)[C@H](Cc1ccccc1)NC(=O)[C@@H]1CCCN1)C(=O)N[C@@H](CCC(N)=O)C(N)=O [D-Ser] (H-PFR[dS]VQ-NH2)
- Ki [1, 4]: 1120 µM

Compound: CC[C@H](C)[C@H](NC(=O)[C@H](CCCNC(=N)N)NC(=O)[C@H](C)NC(=O)[C@H](CCCCN)NC(=O)[C@H](CS)NC(=O)[C@@H]1CCCN1)C(N)=O [Pro-Cys-Lys-Ala-Arg-Ile] (H-PCKARI-NH2)
- Ki ([1]; Table 6, read-out: KI PPK): 0.003 µM
- Ki ([2]; Table 6, HUK, read-out: KI HUK): 0.18 µM

Compound: CC(C)[C@H](N)C(=O)N[C@@H](Cc1ccccc1)C(=O)N[C@@H](CCCNC(=N)N)C(=O)N[C@@H](CC(N)=O)C(=O)N[C@@H](CCCNC(=N)N)C(=O)N[C@@H](CCC(N)=O)C(N)=O [Val-Phe-Arg-Asn-Arg-Gln] (H-VFRNRQ-NH2)
- Ki ([2]; Table 6, HUK, read-out: KI HUK): 532 µM

Compound: CC(C)[C@H](N)C(=O)N[C@@H](Cc1ccccc1)C(=O)N[C@H](C=O)Cc1ccc(N)cc1 [KITDS-2, Val-Phe-Phe(4NH2)-aldehyde] (H-Val-Phe-[Phe(4-NH2)]-aldehyde)
- Ki ([1]; Table 7, read-out: K1 PPK): 160 µM

Compound: N=C(N)NCCC[C@H](NC(=O)[C@H](CC(N)=O)NC(=O)[C@H](CCCNC(=N)N)NC(=O)[C@H](Cc1ccccc1)NC(=O)[C@@H](N)CCCNC(=N)N)C(=O)N[C@@H](CCC(N)=O)C(N)=O [Arg-Phe-Arg-Asn-Arg-Gln] (H-RFRNRQ-NH2)
- Ki ([2]; Table 6, HUK, read-out: KI HUK): 52 µM

Compound: CC(C)[C@H](NC(=O)[C@H](C)NC(=O)[C@H](CCCNC(=N)N)NC(=O)[C@H](Cc1ccccc1)NC(=O)[C@@H]1CCCN1)C(=O)N[C@@H](CCC(N)=O)C(N)=O [Ala] (H-PFRAVQ-NH2)
- Ki [1, 4]: 131 µM and 161 µM
- Ki ([2]; Table 5, Pro-Phe-Arg-X-Val-Gln, read-out: KI HPK): 536 µM

Continued, values first:

- Ki ([1]; Table 4, Pro-X-Arg-Ser-Val-Gln, read-out: KI PPK): 402 µM
- Ki ([2]; Table 4, Pro-X-Arg-Ser-Val-Gln, read-out: KI HPK): 545 µM
Compound: CC(C)[C@H](NC(=O)[C@H](CO)NC(=O)[C@H](CCCNC(=N)N)NC(=O)[C@H](CCc1ccccc1)NC(=O)[C@@H]1CCCN1)C(=O)N[C@@H](CCC(N)=O)C(N)=O [KCH-2] (H-P[hPhe]RSVQ-NH2)

- Ki ([1]; text b291, β-PPK, read-out: KI): 34 µM
Compound: CC[C@@H](C)[C@@H](N)C(=O)N[C@@H](Cc1ccccc1)C(=O)N[C@@H](CCCNC(=N)N)C(=O)N[C@@H](CO)C(=O)N[C@H](C(=O)N[C@@H](CCC(N)=O)C(N)=O)C(C)C [KKI-85, [D-Ile]-Phe-Arg-Ser-Val-Gln] (H-[dI]FRSVQ-NH2)

- Ki [1, 3]: 43.7 µM
Compound: CC[C@@H](N)C(=O)N[C@@H](Cc1ccccc1)C(=O)N[C@@H](CCCNC(=N)N)C(=O)N[C@@H](CO)C(=O)N[C@H](C(=O)N[C@@H](CCC(N)=O)C(N)=O)C(C)C [KKI-82, [D-Aab]-Phe-Arg-Ser-Val-Gln] (H-[dAbu]FRSVQ-NH2)

- Ki [1, 3]: 100 µM
Compound: CC(C)[C@H](NC(=O)[C@H](CO)NC(=O)[C@H](CCCNC(=N)N)NC(=O)[C@H](Cc1ccccc1)NC(=O)[C@H](N)C(C)C)C(=O)N[C@@H](CCC(N)=O)C(N)=O [KKI-83, [D-Val]-Phe-Arg-Ser-Val-Gln] (H-[dV]FRSVQ-NH2)

- Ki ([1]; Table 7, read-out: K1 PPK): 203 µM
Compound: CC(C)[C@H](NC(=O)[C@H](CO)NC(=O)[C@H](CCCCCN)NC(=O)[C@H](Cc1ccccc1)NC(=O)[C@@H]1CCCN1)C(=O)N[C@@H](CCC(N)=O)C(N)=O [KIDZ-8, Pro-Phe-hLys-Ser-Val-Gln] (H-PF[hLys]SVQ-NH2)

- Ki [1, 3]: 50.1 µM
Compound: CC(C)[C@H](NC(=O)[C@H](CO)NC(=O)[C@H](CCCNC(=N)N)NC(=O)[C@H](Cc1ccccc1)NC(=O)[C@@H](C)N)C(=O)N[C@@H](CCC(N)=O)C(N)=O [KKI-81, [D-Ala]-Phe-Arg-Ser-Val-Gln] (H-[dA]FRSVQ-NH2)
